One assay has as its target Adenosine receptor A2a (Homo sapiens, UniProt P29274). Briefly: Displacement of [3H]SCH-58261 from human recombinant adenosine A2A receptor expressed in HEK293 cells. Format: cell-based.
In the next assay the target is T1, Adenosine receptor A1 (Homo sapiens, UniProt P30542).
T1 sequence (P30542 whole entry): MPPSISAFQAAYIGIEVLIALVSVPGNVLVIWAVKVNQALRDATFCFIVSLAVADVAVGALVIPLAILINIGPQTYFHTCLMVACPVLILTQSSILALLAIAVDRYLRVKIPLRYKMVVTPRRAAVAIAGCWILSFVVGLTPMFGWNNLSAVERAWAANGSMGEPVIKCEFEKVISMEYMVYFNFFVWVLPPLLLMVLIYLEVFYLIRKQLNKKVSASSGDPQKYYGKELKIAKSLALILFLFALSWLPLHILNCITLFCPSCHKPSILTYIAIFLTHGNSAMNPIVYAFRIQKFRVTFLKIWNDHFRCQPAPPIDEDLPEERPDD
The experiment in a line: Displacement of [3H]DPCPX from human recombinant adenosine A1 receptor expressed in CHOK1 cells. Format: cell-based, CHO-K1.

For another assay, the species on record is Homo sapiens. The experiment in a line: Selectivity ratio of Ki for human recombinant adenosine A1 receptor to Ki for human recombinant adenosine A2A receptor.

For 19 compounds, Ki and Ratio Ki results are on record in ChEMBL document CHEMBL1154525, “Synthesis of 2-amino-5-benzoyl-4-(2-furyl)thiazoles as adenosine A(2A) receptor antagonists” (Bioorg Med Chem Lett, 2009).

pKi: −log10 of the molar value. Bounds are passed on as bounds.

Adenosine receptor A2a, sequence (P29274 whole entry): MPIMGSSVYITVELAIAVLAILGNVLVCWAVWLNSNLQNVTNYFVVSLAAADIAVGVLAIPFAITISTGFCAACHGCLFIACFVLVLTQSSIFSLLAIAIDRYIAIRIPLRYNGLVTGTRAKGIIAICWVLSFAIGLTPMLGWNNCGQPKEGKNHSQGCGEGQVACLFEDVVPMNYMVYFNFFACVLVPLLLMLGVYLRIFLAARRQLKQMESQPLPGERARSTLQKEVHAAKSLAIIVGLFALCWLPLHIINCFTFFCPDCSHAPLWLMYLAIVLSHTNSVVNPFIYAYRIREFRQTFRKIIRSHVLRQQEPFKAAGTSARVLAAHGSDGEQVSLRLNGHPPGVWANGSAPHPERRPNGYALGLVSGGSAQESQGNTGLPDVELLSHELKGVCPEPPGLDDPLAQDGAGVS

As for `O=C(c1ccccc1)c1sc(NCc2ccco2)nc1-c1ccco1`, the pKi at Adenosine receptor A2a was 7.37; on Adenosine receptor A1 it was 5.84. In addition, the Ratio Ki in the assay listed under Homo sapiens was 35.

As for `O=C(c1ccccc1)c1sc(N(CCc2cccs2)Cc2ccccc2)nc1-c1ccco1`, the pKi at Adenosine receptor A2a was 5.15; at Adenosine receptor A1, < 5.00. Moreover, the Ratio Ki in the assay filed under Homo sapiens is > 1.4.

As for `O=C(c1ccccc1)c1sc(NCCCc2ccccc2)nc1-c1ccco1`, the pKi was 6.98 at Adenosine receptor A2a and 5.20 on Adenosine receptor A1. In the assay listed under Homo sapiens, the Ratio Ki turned out to be 60.

As for `O=C(c1ccccc1)c1sc(NCc2ccc(F)c(F)c2)nc1-c1ccco1`, the pKi at Adenosine receptor A2a is 7.19; at Adenosine receptor A1, < 5.12. The Ratio Ki in the assay listed under Homo sapiens is > 120.

On to `O=C(c1ccccc1)c1sc(NCc2cccs2)nc1-c1ccco1`, for which the negative-log Ki (pKi) was 7.27 on Adenosine receptor A2a and 5.52 at Adenosine receptor A1. For the same compound, the Ratio Ki in the assay listed under Homo sapiens stood at 56.

`CC(=O)N1CCC(Nc2nc(-c3ccco3)c(C(=O)c3ccccc3)s2)CC1`: the pKi at Adenosine receptor A2a is 6.34; at Adenosine receptor A1, 5.91. Besides, the Ratio Ki in the assay filed under Homo sapiens is 3.

As to `O=C(c1ccccc1)c1sc(NCCc2cccs2)nc1-c1ccco1`, the pKi is 7.92 at Adenosine receptor A2a and < 5.17 at Adenosine receptor A1. Further, the Ratio Ki in the assay listed under Homo sapiens is > 580.

Take `CC(C)CNc1nc(-c2ccco2)c(C(=O)c2ccccc2)s1`: the pKi at Adenosine receptor A2a was 7.05; at Adenosine receptor A1, 5.89. Besides, in the assay listed under Homo sapiens, the Ratio Ki turned out to be 14.

Take `COCCNc1nc(-c2ccco2)c(C(=O)c2ccccc2)s1`: the values for the pKi on Adenosine receptor A2a and at Adenosine receptor A1 were 6.71 and 5.17, respectively. Besides, the Ratio Ki in the assay filed under Homo sapiens is 35.

In the case of `O=C(c1ccccc1)c1sc(NC2CCN(C(=O)c3ccccc3F)CC2)nc1-c1ccco1`, the pKi on Adenosine receptor A2a is 6.98; at Adenosine receptor A1, 5.43. Moreover, the Ratio Ki in the assay filed under Homo sapiens was 35.

Take `CNc1nc(-c2ccco2)c(C(=O)c2ccccc2)s1`: the pKi at Adenosine receptor A2a is 7.17; on Adenosine receptor A1 it was 5.45. The Ratio Ki in the assay filed under Homo sapiens amounted to 54.

For the compound `CC(=O)NCCNc1nc(-c2ccco2)c(C(=O)c2ccccc2)s1`, the pKi on Adenosine receptor A2a was 6.55; at Adenosine receptor A1, 5.62. In the assay listed under Homo sapiens, the Ratio Ki is 9.

Take `CN(Cc1ccco1)c1nc(-c2ccco2)c(C(=O)c2ccccc2)s1`: the pKi on Adenosine receptor A2a is 6.80; on Adenosine receptor A1 it was 5.47. Also, in the assay listed under Homo sapiens, the Ratio Ki was found to be 21.

As for `CN(C)c1nc(-c2ccco2)c(C(=O)c2ccccc2)s1`, the pKi at Adenosine receptor A2a was 5.17; on Adenosine receptor A1, < 5.00. The Ratio Ki in the assay listed under Homo sapiens is > 1.5.

`CN(Cc1ccccc1)c1nc(-c2ccco2)c(C(=O)c2ccccc2)s1`: the negative logarithm of the Ki (pKi) was 5.55 at Adenosine receptor A2a and 5.02 on Adenosine receptor A1. Further, in the assay listed under Homo sapiens, the Ratio Ki was 3.4.

`COC(C)CNc1nc(-c2ccco2)c(C(=O)c2ccccc2)s1` (configuration not stated): the figures for the negative logarithm of the Ki (pKi) on Adenosine receptor A2a and on Adenosine receptor A1 were 6.81 and 5.40, respectively. Besides, the Ratio Ki in the assay listed under Homo sapiens was found to be 26.

For the compound `O=C(c1ccccc1)c1sc(N(Cc2ccccc2)Cc2ccco2)nc1-c1ccco1`, the pKi on Adenosine receptor A2a was 7.06; at Adenosine receptor A1, < 5.00. The Ratio Ki in the assay listed under Homo sapiens was > 115.

Regarding `O=C(c1ccccc1)c1sc(NCCc2ccc3c(c2)OCO3)nc1-c1ccco1`, the pKi on Adenosine receptor A2a was 7.21; on Adenosine receptor A1, 5.46. The Ratio Ki in the assay listed under Homo sapiens came out at 58.

As to `CN(CCc1cccs1)c1nc(-c2ccco2)c(C(=O)c2ccccc2)s1`, the pKi on Adenosine receptor A2a was 5.09; at Adenosine receptor A1, < 5.00. The Ratio Ki in the assay filed under Homo sapiens was > 1.2.
